System: 616215-338-R-J1-PDC complex spheroid viability
Assay: Anticancer human tumor 616215-338-R-J1-PDC patient-derived colon adenocarcinoma cell line growth inhibition [POLQ]
Conditions: for IC50: curve of first compound; for viability, T/C: stronger effect = lower value
Description: Multicellular complex tumor spheroid response to Polymerase (POL) inhibitors (novobiocin, ART-558, RP6685) in combination with a variety of drugs and investigational agents in selected tumor cell lines
The POL inhibitors (novobiocin, ART-558, and RP6685) were evaluated both individually and in combination with standard of care and investigational anticancer small molecules within a complex spheroid model of solid tumors. . Complex spheroids include a stromal component modeled by human endothelial cells (HUVEC) and fibroblasts modeled by human mesenchymal stem cells (MSCs). The concentration ranges selected for each drug and investigational agent were based upon clinically achievable concentrations if the clinical Cmax of the agent was known.
Compounds. The drugs and investigational agents: novobiocin (NSC847541), ART-558 (NSC835418), RP-6685 (NSC848927), peposertib (NSC802822), ceralasertib (NSC780249), elimusertib (NSC800525), camonsertib (NSC841442), AZD-1390 (NSC803789), olaparib (NSC753686), talazoparib (NSC767125), rucaparib (NSC756644), sotorasib (NSC818433), MRTX-1133 (NSC836407), SN-38 (NSC673596), topotecan (NSC609699), epotoside (NSC141540), doxorubicin (NSC123127), gemcitabine (NSC613327), 5-fluorouracil (NSC19893), paclitaxel (NSC125973), vemurafenib (NSC761431), MSA-2 (NSC828583), SN-011 (NSC837082), adavosertib (NSC754352), prexasertib (NSC758257), carboplatin (NSC241240) and oxaliplatin (NSC266046), were obtained from the National Cancer Institute (NCI) Developmental Therapeutics Program Chemical Repository (21). The FDA-approved anticancer drug set is available from the Developmental Therapeutics Program at https://dtp.cancer.gov/organization/dscb/obtaining/. […] The stock solutions were prepared in dimethyl sulfoxide (DMSO, Sigma-Aldrich, St. Louis, MO, cat. D2650), except for the platinum compounds which were prepared in saline (Quality Biological, Gaithersburg, MD, cat. 114-055-101), at 800-fold the tested concentration and stored at -70 degrees C prior to their use. All drugs and investigational agents were tested over a range starting from a high concentration at or near the clinical Cmax and decreasing in half-log increments. If the clinical Cmax for an agent had not been determined, the highest concentration tested was 10 microM, except for SN-38, which was tested at a high concentration of 1 microM.
Cell Culture. All cells were maintained in an incubator at 37 degrees C and 5% CO2 with 95% humidity. The PDC lines were cultured according to standard operating procedures established by the NCI PDMR (https://pdmr.cancer.gov). Table 3 of the manuscript, lists the cell lines along with the number of the three cell types plated to form the mct-spheroids and media for tumor cell growth. After thawing, all PDC lines, except 997537-175-T-J1-PDC and 415267-285-R-J2-PDC, were cultured in Matrigel-coated flasks prepared with a working solution of 1X Ham's F-12 nutrient mix, without supplementation (Thermo Fisher Scientific, cat. 11765054), 100 U/mL penicillin-streptomycin (Thermo Fisher Scientific, cat. 15140122), and 2.5% Matrigel (Corning Inc., Corning, NY, cat. 354248) for the first three passages. The two PDC lines 997537-175-T-J1-PDC and 415267-285-R-J2-PDC were cultured on uncoated flasks. The 857933-349-R-J2-PDC line was cultured in 6C/Colon 1B media containing advanced DMEM/F-12 (Thermo Fisher Scientific, cat. 12634028), 10 mM HEPES (Thermo Fisher Scientific, cat. 15630080), 1X GlutaMAX supplement (Thermo Fisher Scientific, cat. 35050061), 0.1 mg/mL primocin (InvivoGen, San Diego, CA, cat. ant-pm-2), 10% defined fetal bovine serum, heat inactivated (HyClone Laboratories Inc., Logan, UT, cat. SH30070.03HI), 50% L-WRN conditioned media (ATCC, cat. CRL-3276), 1.25 mM N-Acetyl-L-cysteine (Sigma-Aldrich, cat. A9165), 10 mM nicotinamide (Sigma-Aldrich, cat. N0636), 1X B-27 supplement (Thermo Fisher Scientific, cat. 17504044), 1X N-2 supplement (Thermo Fisher Scientific, cat. […]
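Further: spheroids exposed to compounds for one week before readout.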
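Wherever viability, T/C is given: percent viability relative to DMSO vehicle wells taken as 100%.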

## CC1COCCN1c1cc(-c2ccnn2C)c2ccnc(-c3ccn[nH]3)c2n1 (configuration not stated) + COC1C(OC(N)=O)C(O)C(Oc2ccc3c(O)c(NC(=O)c4ccc(O)c(CC=C(C)C)c4)c(=O)oc3c2C)OC1(C)C
Second compound 0.0316 µM
  IC50: 862 nM
Second compound 0.1 µM
  IC50: 608 nM
Second compound 0.316 µM
  IC50: 619 nM
Second compound 1 µM
  IC50: 610 nM
Second compound 3.16 µM
  IC50: 804 nM
Second compound 10 µM
  IC50: 635 nM
Second compound 0.0316 µM, first compound 0.0316 µM
  viability, T/C: 102%
Second compound 0.0316 µM, first compound 0.1 µM
  viability, T/C: 90.4%
Second compound 0.0316 µM, first compound 0.316 µM
  viability, T/C: 70.4%
Second compound 0.0316 µM, first compound 1 µM
  viability, T/C: 48.4%
Second compound 0.0316 µM, first compound 3.16 µM
  viability, T/C: 31.5%
Second compound 0.0316 µM, first compound 10 µM
  viability, T/C: 33%
Second compound 0.1 µM, first compound 0.0316 µM
  viability, T/C: 96.4%
Second compound 0.1 µM, first compound 0.1 µM
  viability, T/C: 91.1%
Second compound 0.1 µM, first compound 0.316 µM
  viability, T/C: 60.8%
Second compound 0.1 µM, first compound 1 µM
  viability, T/C: 44%
Second compound 0.1 µM, first compound 3.16 µM
  viability, T/C: 30.5%
Second compound 0.1 µM, first compound 10 µM
  viability, T/C: 38.7%
Second compound 0.316 µM, first compound 0.0316 µM
  viability, T/C: 99.6%
Second compound 0.316 µM, first compound 0.1 µM
  viability, T/C: 86.1%
Second compound 0.316 µM, first compound 0.316 µM
  viability, T/C: 59.3%
Second compound 0.316 µM, first compound 1 µM
  viability, T/C: 46.1%
Second compound 0.316 µM, first compound 3.16 µM
  viability, T/C: 29.7%
Second compound 0.316 µM, first compound 10 µM
  viability, T/C: 40.2%
Second compound 1 µM, first compound 0.0316 µM
  viability, T/C: 103%
Second compound 1 µM, first compound 0.1 µM
  viability, T/C: 84.8%
Second compound 1 µM, first compound 0.316 µM
  viability, T/C: 58.9%
Second compound 1 µM, first compound 1 µM
  viability, T/C: 46.1%
Second compound 1 µM, first compound 3.16 µM
  viability, T/C: 29%
Second compound 1 µM, first compound 10 µM
  viability, T/C: 36.1%
Second compound 3.16 µM, first compound 0.0316 µM
  viability, T/C: 96.1%
Second compound 3.16 µM, first compound 0.1 µM
  viability, T/C: 86.4%
Second compound 3.16 µM, first compound 0.316 µM
  viability, T/C: 68.6%
Second compound 3.16 µM, first compound 1 µM
  viability, T/C: 47.6%
Second compound 3.16 µM, first compound 3.16 µM
  viability, T/C: 28.7%
Second compound 3.16 µM, first compound 10 µM
  viability, T/C: 30.9%
Second compound 10 µM, first compound 0.0316 µM
  viability, T/C: 96.8%
Second compound 10 µM, first compound 0.1 µM
  viability, T/C: 86.9%
Second compound 10 µM, first compound 0.316 µM
  viability, T/C: 57.3%
Second compound 10 µM, first compound 1 µM
  viability, T/C: 47.7%
Second compound 10 µM, first compound 3.16 µM
  viability, T/C: 29.1%
Second compound 10 µM, first compound 10 µM
  viability, T/C: 31%

Reference: PubChem BioAssay AID1963843 (Molecular Pharmacology Branch, DTP, NCI, 2024)
